Like-named read-outs stand apart in the source and are kept apart here.
Legend:
[1] = test system: mouse colorectal cancer CT26 cell line; assay: Subcutaneous tumor model of female Balb/c mice transplanted with mouse colorectal cancer CT26 cell line; type: in vivo; conditions: separate CT26 model cohort, 20 mg/kg
Experimental: Pharmacodynamic Evaluation of Test Compounds in a Subcutaneous Tumor Model of Female Balb/c Mice Transplanted with Mouse Colorectal Cancer CT26 Cell Line
CT-26 tumor cells were cultured in a suitable culture medium. Cells in the exponential growth phase were collected and subcutaneously inoculated into the right back of experimental mice. Tumor growth was observed regularly after inoculation. When the tumor reached an average volume of approximately 100 mm^3, mice were randomly grouped based on tumor size and body weight for administration. The day of grouping was defined as Day 0. Test compounds were administered orally once weekly for 4 times. The efficacy was evaluated by calculating the tumor growth inhibition (TGI) based on the tumor volume, and the safety was evaluated based on the changes in animal body weight and death. […] All test compounds were well-tolerated.

[2] = mouse; for oral availability: ICR, in vivo, 5 mg/kg; for clearance in vivo compared to MAS-2: po
Experimental: (§1) The doses for IV and PO were 2 mg/kg and 5 mg/kg, respectively. Blood was collected at different time points after IV and PO administration and placed in heparinized tubes. Plasma was separated and frozen in a −20° C. refrigerator. Plasma was processed and then analyzed by LCMS/MS. Pharmacokinetic parameters of drug administration were calculated using a non-compartmental model in WinNonlin 8.2 software.

in vivo = conditions: ICR, mouse
Experimental: as §1

[3] = test system: human non-small cell lung cancer; conditions: in combination with standard chemotherapy; cited from earlier work
human STING protein = human STING protein (Homo sapiens, UniProt Q86WV6); conditions: cited from earlier work
[4] = Pharmacokinetic (PK) study in ICR mice, IV and PO
Experimental: as §1

[5] = ICR, mouse, plasma, iv, 2 mg/kg
[6] = ICR, mouse, plasma, po, 5 mg/kg
[7] = mouse PK, injection 2 mg/kg and oral 5 mg/kg

human STING protein, sequence (Q86WV6 whole entry): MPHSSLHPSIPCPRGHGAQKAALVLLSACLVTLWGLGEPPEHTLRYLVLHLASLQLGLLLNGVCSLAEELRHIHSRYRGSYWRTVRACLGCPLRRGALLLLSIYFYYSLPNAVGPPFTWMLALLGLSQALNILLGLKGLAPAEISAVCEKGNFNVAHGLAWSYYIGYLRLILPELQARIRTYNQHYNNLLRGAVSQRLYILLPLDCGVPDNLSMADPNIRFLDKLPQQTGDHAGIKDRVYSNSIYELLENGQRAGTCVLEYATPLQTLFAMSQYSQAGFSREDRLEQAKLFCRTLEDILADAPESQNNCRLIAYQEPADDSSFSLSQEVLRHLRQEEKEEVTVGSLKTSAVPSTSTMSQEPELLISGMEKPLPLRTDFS

Compound | tumor growth inhibition (TGI) [1] [%] | oral availability [2] [%] | clearance in vivo compared to MAS-2 [2] | AUC(0-t) (in vivo; iv, 2 mg/kg) [ng·h/mL] | Vd (in vivo; iv, 2 mg/kg) [L/kg] | clearance (in vivo; iv, 2 mg/kg) [mL/min/kg] | half-life (in vivo; iv, 2 mg/kg) [h] | AUC(0-t) (in vivo; po, 5 mg/kg) [ng·h/mL] | Cmax (in vivo; po, 5 mg/kg) [ng/mL] | bioavailability (in vivo; po, 5 mg/kg) [%] | half-life (in vivo; po, 5 mg/kg) [h] | further results
CC[C@@H](CC(=O)c1cc2c(cc(OC)c3oc(C)nc32)s1)C(=O)O [Compound 53] | 101 | – | – | – | – | – | – | – | – | – | – | –
COc1cc2sc(C(=O)C[C@H](C)C(=O)O)cc2c2ncoc12 [Example 46, (S)-4-(4-methoxythieno[2′,3′:5,6]benzo[1,2-d]oxazol-7-yl)-2-methyl-4-oxobutanoic acid] | – | 64.6 | lower clearance | 3540 | 0.32 | 9.38 | 1.72 | 5710 | 6480 | 64.6 | 1.61 | –
Cc1ccc2c(=O)c3cccc(CC(=O)O)c3oc2c1C [DMXAA] | – | – | – | – | – | – | – | – | – | – | – | clinical efficacy [3]: failed to show significant efficacy; activation of human STING protein (human STING protein): fails to activate
CC[C@@H](CC(=O)c1cc2c(cc(OC)c3ocnc32)s1)C(=O)O [Compound 51] | 99 | – | – | – | – | – | – | – | – | – | – | AUC(0-t) [4, 5]: 3240 ng·h/mL; Vd [4, 5]: 1.28 L/kg; clearance [4, 5]: 10.2 mL/min/kg; half-life [4, 5]: 4.36 h; AUC(0-t) [4, 6]: 8550 ng·h/mL; Cmax [4, 6]: 4550 ng/mL; bioavailability [4, 6]: 105%; half-life [4, 6]: 3.1 h; clearance in vivo compared to MAS-2 [4, 7]: lower clearance; exposure in vivo compared to MAS-2 [4, 7]: higher exposure; oral availability ([4]; mouse PK, oral administration at 5 mg/kg): 100%
COc1cc2sc(C(=O)CC(C)C(=O)O)cc2c2ncoc12 (centres unmarked) [Example 12] | – | 100 | lower clearance | 1570 | 0.49 | 21.2 | 1.5 | 4060 | 6020 | 104 | 2 | –

Reference: US20260242392A1, “ARYL TRICYCLIC STING AGONISTS AND USE THEREOF” (SHENZHEN GENUINE BIOTECHNOLOGY CO., LTD., priority 2023, published 2026)
